Measurements from US11746102B2, “Polymorphs of selinexor” (Karyopharm Therapeutics Inc., priority 2014, dated 2023).

Experiment: Solubility assessment (visual) of selinexor in solvents and solvent mixtures
Assay type: physicochemical
Settings: any of the MTBE:heptane mixtures investigated

For `O=C(/C=C\n1cnc(-c2cc(C(F)(F)F)cc(C(F)(F)F)c2)n1)NNc1cnccn1` [Selinexor, (Z)-3-(3-(3,5-bis(trifluoromethyl)phenyl)-1H-1,2,4-triazol-1-yl)-N′-(pyrazin-2-yl)acrylohydrazide], the Solubility was > 100 volumes.
